The values below come from patent US20120052122A1, “Treatment Of Chronic Obstructive Pulmonary Disease With Phosphodiesterase-4 Inhibitor” (Nycomed GmbH, priority 2010, published 2012).

By Cmax is commonly meant the peak of the concentration-time curve.

Data set [1] concerns CYP 1A2, 2A6, 2B6, 2C8, 2C9, 2C19, 2D6, 2E1, 3A4/5, or 4A9/11. The data set can be described thus: CYP inhibition in human liver microsomes. Conditions: therapeutic plasma concentrations. On the technique in general: Liver microsomes are a subcellular fraction often used to study metabolism.
For data set [2] the following is noted: human, in vivo.

Consider `O=C(Nc1c(Cl)c[n+]([O-])cc1Cl)c1ccc(OC(F)F)c(OCC2CC2)c1` [roflumilast N-oxide], for which the Linearity of pharmacokinetics result in “Human pharmacokinetics” (250 mcg to 1,000 mcg) is recorded as “dose-proportional”. For the same molecule, in the data set “Human pharmacokinetics” (fasted state), the “Time of maximum plasma concentrations after dosing” value was “about eight”. Further, in “Human pharmacokinetics” (in vivo), the Cmax is 8.5 µg/L and the “Plasma AUC” value came to 315 ugxh/L. The “Time to steady state plasma concentrations” value in “Human pharmacokinetics” (once daily dosing) is roughly 6 days. In addition, the “Median plasma effective half-life” value in “Human pharmacokinetics” (oral dose) is roughly 30 h. In addition, the “Inhibition of CYP 1A2, 2A6, 2B6, 2C8, 2C9, 2C19, 2D6, 2E1, 3A4/5, or 4A9/11” value in data set [1] was “do not inhibit”. The “Absorption or pharmacokinetics on co-administration with an antacid” value in data set [2] was “did not alter”.
